# Patent US20220315558A1, “POLYMORPHS OF 1-(2-((((TRANS)-3-FLUORO-1-(3-FLUOROPYRIDIN-2-YL)CYCLOBUTYL)METHYL)AMINO)PYRIMIDIN-5-YL)-1H-PYRROLE-3-CARBOXAMIDE” (Cytokinetics, Inc., priority 2019, published 2022)
# Columns and labels:
# Type in all cases: physicochemical
# [1] = Gravimetric Vapour Sorption (GVS) moisture sorption isotherm; conditions: over 0-90% RH range, 25° C.
# Experimental: GVS data were collected using a SMS DVS Intrinsic moisture sorption analyser, controlled by DVS Intrinsic Control software v1.0.0.30. The sample temperature was maintained at 25° C. by the instrument controls. The humidity was controlled by mixing streams of dry and wet nitrogen, with a total flow rate of 200 ml/min The relative humidity was measured by a calibrated Rotronic probe (dynamic range of 1.0-100% RH), located near the sample. The weight change, (mass relaxation) of the sample as a function of % RH was constantly monitored by the microbalance (accuracy ±0.005 mg).
# Typically 5-20 mg of sample was placed in a tared mesh stainless steel basket under ambient conditions. The sample was loaded and unloaded at 40% RH and 25° C. (typical room conditions). A moisture sorption isotherm was performed as outlined below (2 scans giving 1 complete cycle). The standard isotherm was performed at 25° C. at 10% RH intervals over a 0-90% RH range. Data analysis was undertaken in Microsoft Excel using DVS Analysis Suite v6.0.
# [2] = Storage stability for 7 days at controlled temperature/RH, checked by XRPD
# Experimental: Ray Powder Diffraction patterns were collected on a Bruker D8 diffractometer using Cu Kα radiation (40 kV, 40 mA), θ-2θ goniometer, and divergence of V4 and receiving slits, a Ge monochromator and a Lynxeye detector. The instrument is performance checked using a certified Corundum standard (NIST 1976). The software used for data collection was Diffrac Plus XRD Commander v2.6.1 and the data were analysed and presented using Diffrac Plus EVA v13.0.0.2 or v15.0.0.0.
# Samples were run under ambient conditions as flat plate specimens using powder as received. The sample was gently packed into a cavity cut into polished, zero-background (510) silicon wafer. The sample was rotated in its own plane during analysis. The details of the data collection are: • Angular range: 2 to 42° 2θ • Step size: 0.05° 2θ • Collection time: 0.5 s/step
# Polymorphic Form I of 1-(2-((((trans)-3-fluoro-1-(3-fluoropyridin-2-yl)cyclobutyl)methyl)amino)pyrimidin-5-yl)-1H-pyrrole-3-carboxamide was analyzed by XRPD, DSC, TGA, and GVS. […] Chemical stability study of Form I was also performed. XRPD patterns were measured after storage of samples of Form I for 7 days at 40° C./75% RH and 25° C./97% RH.
# [3] = Solubility of Form I in solvents at 50° C. (polymorph screening); design: key: ✓ YES; x NO
# Experimental: Polymorphic Form I of 1-(2-((((trans)-3-fluoro-1-(3-fluoropyridin-2-yl)cyclobutyl)methyl)amino)pyrimidin-5-yl)-1H-pyrrole-3-carboxamide was weighed into vials, and the stated solvents were added, in increasing portions, at 50° C. With each addition, the vials were allowed to shake for ˜20 minutes. After the last addition, any suspensions observed were subjected to heat/cool cycles, between room temperature and 50° C., 4 hours at each condition, for 1 week. Solutions were allowed to slowly evaporate.
# Aliquots were filtered by suction after 7 days maturation and analysed by XRPD (low resolution, air-dried only). Most solutions yielded solids after 9 days and these were analyzed by XRPD as well.
# [4] = Competitive slurry experiments between Form I and Form II; conditions: methanol, constant temperature 4 to 60° C., 12 days, XRPD
# Experimental: (§1) A mechanical mixture of Form I and Form II was prepared. This mixture was analyzed by XRPD for reference. The mixture (ca. 25 mg) was suspended in methanol, and parallel maturation experiments were set up at a constant temperature, in the range of 4 to 60° C., for a total of 12 days. The resulting solids were filtered and analyzed by XRPD.
# [5] = Competitive slurry experiments between Form I and Form IV; conditions: as Example 3 (methanol, 4 to 60° C.), 12 days, XRPD
# Experimental: as §1
# Competitive slurry experiments between Form I and Form IV were conducted in a manner similar to that described in Example 3.
smiles,measurement,setting,value
"NC(=O)c1ccn(-c2cnc(NC[C@]3(c4ncccc4F)C[C@H](F)C3)nc2)c1 [Form I, 1-(2-((((trans)-3-fluoro-1-(3-fluoropyridin-2-yl)cyclobutyl)methyl)amino)pyrimidin-5-yl)-1H-pyrrole-3-carboxamide]",moisture uptake as determined by GVS,[1],less than 0.07%
same,changes in XRPD pattern after storage,[2]; 7 days at 25° C./97% RH,No visible changes
same,changes in XRPD pattern after storage,[2]; 7 days at 40° C./75% RH,No visible changes
same,Solubility (volumes) (✓ YES; x NO) at 50° C.,"[3]; 1,4-Dioxane, 10 volumes",x
same,Solubility (volumes) (✓ YES; x NO) at 50° C.,"[3]; 1,4-Dioxane, 25 volumes",x
same,Solubility (volumes) (✓ YES; x NO) at 50° C.,"[3]; 1,4-Dioxane, 50 volumes",x
same,Solubility (volumes) (✓ YES; x NO) at 50° C.,"[3]; 1-Butanol, 10 volumes",x
same,Solubility (volumes) (✓ YES; x NO) at 50° C.,"[3]; 1-Butanol, 25 volumes",x
same,Solubility (volumes) (✓ YES; x NO) at 50° C.,"[3]; 1-Butanol, 50 volumes",x
same,Solubility (volumes) (✓ YES; x NO) at 50° C.,"[3]; 1-Propanol, 10 volumes",x
same,Solubility (volumes) (✓ YES; x NO) at 50° C.,"[3]; 1-Propanol, 25 volumes",x
same,Solubility (volumes) (✓ YES; x NO) at 50° C.,"[3]; 1-Propanol, 50 volumes",x
same,Solubility (volumes) (✓ YES; x NO) at 50° C.,"[3]; 2-Propanol, 10 volumes",x
same,Solubility (volumes) (✓ YES; x NO) at 50° C.,"[3]; 2-Propanol, 25 volumes",x
same,Solubility (volumes) (✓ YES; x NO) at 50° C.,"[3]; 2-Propanol, 50 volumes",x
same,Solubility (volumes) (✓ YES; x NO) at 50° C.,"[3]; Acetone, 10 volumes",x
same,Solubility (volumes) (✓ YES; x NO) at 50° C.,"[3]; Acetone, 25 volumes",x
same,Solubility (volumes) (✓ YES; x NO) at 50° C.,"[3]; Acetone, 50 volumes",x
same,Solubility (volumes) (✓ YES; x NO) at 50° C.,"[3]; Acetonitrile, 10 volumes",✓
same,Solubility (volumes) (✓ YES; x NO) at 50° C.,"[3]; Anisole, 10 volumes",x
same,Solubility (volumes) (✓ YES; x NO) at 50° C.,"[3]; Anisole, 25 volumes",x
same,Solubility (volumes) (✓ YES; x NO) at 50° C.,"[3]; Anisole, 50 volumes",x
same,Solubility (volumes) (✓ YES; x NO) at 50° C.,"[3]; Butyl acetate (BuOAc), 10 volumes",x
same,Solubility (volumes) (✓ YES; x NO) at 50° C.,"[3]; Butyl acetate (BuOAc), 25 volumes",x
same,Solubility (volumes) (✓ YES; x NO) at 50° C.,"[3]; Butyl acetate (BuOAc), 50 volumes",x
same,Solubility (volumes) (✓ YES; x NO) at 50° C.,"[3]; Dichloromethane (DCM), 10 volumes",x
same,Solubility (volumes) (✓ YES; x NO) at 50° C.,"[3]; Dichloromethane (DCM), 25 volumes",x
same,Solubility (volumes) (✓ YES; x NO) at 50° C.,"[3]; Dichloromethane (DCM), 50 volumes",x
same,Solubility (volumes) (✓ YES; x NO) at 50° C.,"[3]; Dioxane/5% water, 10 volumes",x
same,Solubility (volumes) (✓ YES; x NO) at 50° C.,"[3]; Dioxane/5% water, 25 volumes",x
same,Solubility (volumes) (✓ YES; x NO) at 50° C.,"[3]; Dioxane/5% water, 50 volumes",✓
same,Solubility (volumes) (✓ YES; x NO) at 50° C.,"[3]; Ethanol, 10 volumes",x
same,Solubility (volumes) (✓ YES; x NO) at 50° C.,"[3]; Ethanol, 25 volumes",x
same,Solubility (volumes) (✓ YES; x NO) at 50° C.,"[3]; Ethanol, 50 volumes",x
same,Solubility (volumes) (✓ YES; x NO) at 50° C.,"[3]; Ethanol/5% water, 10 volumes",x
same,Solubility (volumes) (✓ YES; x NO) at 50° C.,"[3]; Ethanol/5% water, 25 volumes",x
same,Solubility (volumes) (✓ YES; x NO) at 50° C.,"[3]; Ethanol/5% water, 50 volumes",x
same,Solubility (volumes) (✓ YES; x NO) at 50° C.,"[3]; Ethyl acetate, 10 volumes",x
same,Solubility (volumes) (✓ YES; x NO) at 50° C.,"[3]; Ethyl acetate, 25 volumes",x
same,Solubility (volumes) (✓ YES; x NO) at 50° C.,"[3]; Ethyl acetate, 50 volumes",x
same,Solubility (volumes) (✓ YES; x NO) at 50° C.,"[3]; Heptane, 10 volumes",x
same,Solubility (volumes) (✓ YES; x NO) at 50° C.,"[3]; Heptane, 25 volumes",x
same,Solubility (volumes) (✓ YES; x NO) at 50° C.,"[3]; Heptane, 50 volumes",x
same,Solubility (volumes) (✓ YES; x NO) at 50° C.,"[3]; Isopropanol (IPA)/5% water, 10 volumes",x
same,Solubility (volumes) (✓ YES; x NO) at 50° C.,"[3]; Isopropanol (IPA)/5% water, 25 volumes",x
same,Solubility (volumes) (✓ YES; x NO) at 50° C.,"[3]; Isopropanol (IPA)/5% water, 50 volumes",x
same,Solubility (volumes) (✓ YES; x NO) at 50° C.,"[3]; Isopropyl acetate (IPAc), 10 volumes",x
same,Solubility (volumes) (✓ YES; x NO) at 50° C.,"[3]; Isopropyl acetate (IPAc), 25 volumes",x
same,Solubility (volumes) (✓ YES; x NO) at 50° C.,"[3]; Isopropyl acetate (IPAc), 50 volumes",x
same,Solubility (volumes) (✓ YES; x NO) at 50° C.,"[3]; Methanol, 10 volumes",x
same,Solubility (volumes) (✓ YES; x NO) at 50° C.,"[3]; Methanol, 25 volumes",x
same,Solubility (volumes) (✓ YES; x NO) at 50° C.,"[3]; Methanol, 50 volumes",x
same,Solubility (volumes) (✓ YES; x NO) at 50° C.,"[3]; Methyl ethyl ketone (MEK), 10 volumes",x
same,Solubility (volumes) (✓ YES; x NO) at 50° C.,"[3]; Methyl ethyl ketone (MEK), 25 volumes",x
same,Solubility (volumes) (✓ YES; x NO) at 50° C.,"[3]; Methyl ethyl ketone (MEK), 50 volumes",x
same,Solubility (volumes) (✓ YES; x NO) at 50° C.,"[3]; Methyl isobutyl ketone (MIBK), 10 volumes",x
same,Solubility (volumes) (✓ YES; x NO) at 50° C.,"[3]; Methyl isobutyl ketone (MIBK), 25 volumes",x
same,Solubility (volumes) (✓ YES; x NO) at 50° C.,"[3]; Methyl isobutyl ketone (MIBK), 50 volumes",x
same,Solubility (volumes) (✓ YES; x NO) at 50° C.,"[3]; Nitromethane, 10 volumes",x
same,Solubility (volumes) (✓ YES; x NO) at 50° C.,"[3]; Nitromethane, 25 volumes",x
same,Solubility (volumes) (✓ YES; x NO) at 50° C.,"[3]; Nitromethane, 50 volumes",x
same,Solubility (volumes) (✓ YES; x NO) at 50° C.,"[3]; THF/5% water, 10 volumes",x
same,Solubility (volumes) (✓ YES; x NO) at 50° C.,"[3]; THF/5% water, 25 volumes",Cloudy
same,Solubility (volumes) (✓ YES; x NO) at 50° C.,"[3]; THF/5% water, 50 volumes",✓
same,Solubility (volumes) (✓ YES; x NO) at 50° C.,"[3]; Tert-butyl methyl ether (TBME), 10 volumes",x
same,Solubility (volumes) (✓ YES; x NO) at 50° C.,"[3]; Tert-butyl methyl ether (TBME), 25 volumes",x
same,Solubility (volumes) (✓ YES; x NO) at 50° C.,"[3]; Tert-butyl methyl ether (TBME), 50 volumes",x
same,Solubility (volumes) (✓ YES; x NO) at 50° C.,"[3]; Tetrahydrofuran (THF), 10 volumes",x
same,Solubility (volumes) (✓ YES; x NO) at 50° C.,"[3]; Tetrahydrofuran (THF), 25 volumes",x
same,Solubility (volumes) (✓ YES; x NO) at 50° C.,"[3]; Tetrahydrofuran (THF), 50 volumes",x
same,Solubility (volumes) (✓ YES; x NO) at 50° C.,"[3]; Toluene, 10 volumes",x
same,Solubility (volumes) (✓ YES; x NO) at 50° C.,"[3]; Toluene, 25 volumes",x
same,Solubility (volumes) (✓ YES; x NO) at 50° C.,"[3]; Toluene, 50 volumes",x
same,Solubility (volumes) (✓ YES; x NO) at 50° C.,"[3]; Water, 10 volumes",x
same,Solubility (volumes) (✓ YES; x NO) at 50° C.,"[3]; Water, 25 volumes",x
same,Solubility (volumes) (✓ YES; x NO) at 50° C.,"[3]; Water, 50 volumes",x
same,relative stability versus Form II (competitive slurry),[4],more stable
same,relative stability versus Form IV (competitive slurry),[5],more stable
